Tests used:
STEME = experiment: Post-emergence weed control, field (Example 3), percent injury 17 DAT; assay type: in vivo, Stellaria media
Text: (§1) The herbicide compounds applied in the examples were used as experimental or commercially available solo or premix formulations which have been diluted with tap water to a suitable concentration. Glufosinate was used as a commercial SL formulation containing 280 g ai/I of glufosinate (Liberty 280 SL, BASF). While the PPO herbicides saflufenacil and trifludimoxazin were used as solo (saflufenacil - Sharpen/Heat herbicide 342 SC, BASF, or trifludimoxazin - Vulcarus 500 SC, BASF), or a premix of saflufenacil + trifludimoxazin as a 250 + 125 g ai/I SC formulation.
(§2) The evaluation for plant injury or damage caused by the chemical compositions was carried out using a scale from 0 - 100% when compared with the untreated control plants. Here, 0 means no damage and 100 means complete destruction of the plants.
(§3) A natural field population of common chickweed (Stellaria media; STEME), purple cudweed (Gnaphalium purpureum; GNAPU), henbit (Lamium amplexicaule; LAMAM), and annual bluegrass (Poa annua; POAAN) were treated with postemergence applications of either glufosinate at 450 or 655 g ai/ha, saflufenacil + trifludimoxazin at 1.7 + 0.8, or 4.2 + 2.1 g ai/ha, or the combination of glufosinate and saflufenacil + trifludimoxazin at 450 and 1.7 + 0.8, or 4.2 + 2.1 g ai/ha, respectively, when they were 7.6 - 15 cm in height. […]

POAAN [1] = experiment: as above; assay type: in vivo, Poa annua
Text: as §1, §2, §3

POAAN [2] = experiment: Post-emergence weed control, field (Example 2), percent injury 16 DAT; assay type: in vivo, Poa annua
Text: as §1, §2
(§4) A natural field population of small flowered bittercress (Cardamine parviflora; CARPA), cressleaf grounsel (Senecio glabellus; SENGL), cutleaf evening primrose (Oenothera laciniate; OEOLA), and annual bluegrass (Poa annua; POAAN) were treated with postemergence applications of either glufosinate at 450 or 655 g ai/ha, saflufenacil + trifludimoxazin at 1.7 + 0.8, or 4.2 + 2.1 g ai/ha, or the combination of glufosinate and saflufenacil + trifludimoxazin at 450 and 1.7 + 0.8, or 4.2 + 2.1 g ai/ha, respectively, when they were 10 - 25 cm in height. […]

LAMAM = experiment: Post-emergence weed control, field (Example 3), percent injury 17 DAT; assay type: in vivo, Lamium amplexicaule
Text: as §1, §2, §3

SENGL = experiment: Post-emergence weed control, field (Example 2), percent injury 16 DAT; assay type: in vivo, Senecio glabellus
Text: as §1, §2, §4

OEOLA = experiment: as above; assay type: in vivo, Oenothera laciniate
Text: as §1, §2, §4

GNAPU = experiment: Post-emergence weed control, field (Example 3), percent injury 17 DAT; assay type: in vivo, Gnaphalium purpureum
Text: as §1, §2, §3

CARPA = experiment: Post-emergence weed control, field (Example 2), percent injury 16 DAT; assay type: in vivo, Cardamine parviflora
Text: as §1, §2, §4

LOLMU = experiment: Post-emergence weed control, greenhouse (Example 1), percent injury 14 DAT; assay type: in vivo; details: Lolium multiflorum, 336 h, Glufosinate 450 g/ha, read-out: Herbicidal action against LOLMU (% activity compared to untreated) Found
Text: as §1, §2
22., E=X+Y-(X*Y/100), where X = effect in percent using herbicide A at an application rate of a; Y = effect in percent using herbicide B at an application rate of b; E = expected effect (in %) of A + B at application rates a + b.
The value E corresponds to the effect (plant damage or injury) which is to be expected if the activity of the individual compounds is just additive. If the observed effect is higher than the value E calculated according to Colby, a synergistic effect is present. […]

CP(=O)(O)CCC(N)C(=O)O (racemic) [Glufosinate, (2RS)-2-amino-4-[hydroxy(methyl)phosphinoyl]butyric acid]
Mean % Control (17 DAT) STEME (STEME; 450 g ai/ha): 53.3%
Mean % Control (17 DAT) STEME (STEME; 655 g ai/ha): 90.0%
Mean % Control (17 DAT) POAAN (POAAN [1]; 450 g ai/ha): 66.7%
Mean % Control (17 DAT) POAAN (POAAN [1]; 655 g ai/ha): 86.7%
Mean % Control (16 DAT) POAAN (POAAN [2]; 450 g ai/ha): 80.0%
Mean % Control (16 DAT) POAAN (POAAN [2]; 655 g ai/ha): 90.7%
Mean % Control (17 DAT) LAMAM (LAMAM; 450 g ai/ha): 50.0%
Mean % Control (17 DAT) LAMAM (LAMAM; 655 g ai/ha): 82.7%
Mean % Control (16 DAT) SENGL (SENGL; 450 g ai/ha): 80.7%
Mean % Control (16 DAT) SENGL (SENGL; 655 g ai/ha): 88.7%
Mean % Control (16 DAT) OEOLA (OEOLA; 450 g ai/ha): 81.7%
Mean % Control (16 DAT) OEOLA (OEOLA; 655 g ai/ha): 92.3%
Mean % Control (17 DAT) GNAPU (GNAPU; 450 g ai/ha): 78.3%
Mean % Control (17 DAT) GNAPU (GNAPU; 655 g ai/ha): 98.7%
Mean % Control (16 DAT) CARPA (CARPA; 450 g ai/ha): 90.7%
Mean % Control (16 DAT) CARPA (CARPA; 655 g ai/ha): 95.0%
activity at 450 g/ha (LOLMU): 68.5%

Reference: patent EP4000400A1, “HERBICIDE COMBINATION COMPRISING GLUFOSINATE, SA[…] TRIFLUDIMOXAZIN” (BASF SE, priority 2020, dated 2022)
